This note sets out measurements from patent publication US10858322B2, “Process for preparing 1-isobutyryl-1′-((1-(4,4,4-trifluorobutyl)-4,5,6,7-tetrahydro-1H-benzo[D]imidazol-2-yl)methyl)spiro[azetidine-3,3′-indolin]-2′-one” (SHANDONG DANHONG PHARMACEUTICAL CO., LTD., priority 2015, dated 2020).

Converted amounts (≈) assume the structure as drawn. Some results are limits rather than exact numbers.

For series [1], the system named is RSV respiratory syncytial virus (Along strain). Put plainly: microbe, parasite or virus in culture. The series is classed as cell-based. Here is the method: And then sucked it into a 37° C., 5% CO2 incubator to digest.
3) Each T150 was suspended in 10 to 15 mL culture medium, 0.1 mL was taken and then diluted twice with trypan blue solution.
2) CCK-8 (Dojindo-CK04-20, 6 μL/well) was added to 384 well plates with Multidrop® automatic dispenser.
4) The data were analyzed.

Series [2] concerns Hep2 cells. Description: RSV long CPE assay, CC50 (in vitro toxicity). To be noted: conclusion from the CPE assay CC50. The format is cell-based. The protocol: (§1) RSV long CPE assay Experimental Purpose: The EC50 and CC50 values of anti-RSV respiratory syncytial virus compounds were detected by cytopathology. Experimental Materials: Cell Line: Hep2 Experimental Procedures and Methods: a) Cell Inoculation (Hep2 cell) 1) The cell culture medium was removed and washed with 10 mL of PBS; 2) The preheated trypsin was added to the cleaned culture flask and rotating the flask to allow the trypsin to uniformly cover the culture flask. And then sucked it into a 37° C., 5% CO2 incubator to digest. 3) Each T150 was suspended in 10 to 15 mL culture medium, 0.1 mL was taken and then diluted twice with trypan blue solution. […] The cells were centrifuged (300 rpm) and the cells were adhered to the wall and placed in a 37° C., 5% CO2 incubator overnight. b) Compound addition: 1) The compound dissolved in 100% DMSO was diluted in a half logarithm and added to the cell plate using an Echo liquid handler. To ensure that the final concentration of DMSO was 1%; [table] […] 2) CCK-8 (Dojindo-CK04-20, 6 μL/well) was added to 384 well plates with Multidrop® automatic dispenser. […] 4) The data were analyzed.

Series [3] can be described thus: RSV long CPE assay, CC50 (in vitro toxicity). The series is classed as cell-based. To be noted: human; Hep2 cells, 5 days, CCK-8 readout, n = 7. Here is the method:
as §1

Series [4] can be described thus: Solid physical stability of crystal form A under different temperature and humidity conditions. The format is physicochemical. To be noted: 10th day. The protocol: The X-Ray Powder Diffraction method is as follows: Instrument: Bruker D8 ADVANCE X-Ray diffractometer; Target: Cu: K-Alpha; Wavelength λ=1.54179 Å; Tube Voltage: 40 kV; Tube Current: 40 mA; Scanning scope: 4-40°; Sample Rotation speed: 15 rpm; Scanning speed: 10°/min. […] On the tenth day, all samples were removed and returned to room temperature. The appearance changes of samples were observed, and the crystal form of samples was detected by XRPD.

The nature of series [5]: Approximate solubility test of crystal form A. The format is physicochemical. To be noted: thermodynamic from solid, room temperature (20 to 30° C.).
A short description of series [6]: Stability experiment of crystal form A in different solvents (XRPD). The series is classed as physicochemical. To be noted: 2 days. The protocol: The X-Ray Powder Diffraction method is as follows:
Instrument: Bruker D8 ADVANCE X-Ray diffractometer; Target: Cu: K-Alpha; Wavelength λ=1.54179 Å; Tube Voltage: 40 kV; Tube Current: 40 mA; Scanning scope: 4-40°; Sample Rotation speed: 15 rpm; Scanning speed: 10°/min.
The mixture was stirred at 40° C. If the compound was completely dissolved, the sample was allowed to cool to room temperature, and if the solid was precipitated, the mixture was continued to stir; and if the sample remained in solution, the solvent was naturally evaporated to remove. After all the suspensions were stirred for 2 days, the solids in all samples were collected and XRPD was used to detect the crystal form state.

The mark [7] stands for this setting: 0 day (−20° C. Sealed Storage) (Control Sample).
The mark [8] stands for this setting: 25° C./92.5% Relative Humidity (Open).
Setting [9] is: 60° C./75% Relative Humidity (Open).

For `CC(C)C(=O)N1CC2(C1)C(=O)N(Cc1nc3c(n1CCCC(F)(F)F)CCCC3)c1ccccc12` [Compound of formula (I), 1-Isobutyryl-1′-((1-(4,4,4-trifluorobutyl)-4,5,6,7-tetrahydro-1H-benzo[d]imidazol-2-yl)methyl)spiro[azetidine-3,3′-indolin]-2′-one], in series [1] (conclusion from the CPE assay), the “activity in vitro compared with BMS433771” value is recorded as “better activity in vitro”. In series [1] (human respiratory syncytial virus, HEp-2, 120 h, Hep2 cells, RSV A long strain, 5 days, CCK-8 readout, n = 7, read-out: CPE assay EC50), the EC50 (commonly the midpoint of the concentration-response curve) amounted to 7 nM. In addition, the cytotoxicity entry in series [2] was “no cytotoxicity”. Also, the CC50 (as a rule, the concentration giving 50% cytotoxicity) at 5 days in series [3] was more than 100000 nM.
Regarding `CC(C)C(=O)N1CC2(C1)C(=O)N(Cc1nc3c(n1CCCC(F)(F)F)CCCC3)c1ccccc12` [Crystal Form A, 1-Isobutyryl-1′-((1-(4,4,4-trifluorobutyl)-4,5,6,7-tetrahydro-1H-benzo[d]imidazol-2-yl)methyl)spiro[azetidine-3,3′-indolin]-2′-one], the Character result in series [4] (setting [7]), in series [4] (setting [8]), in series [4] (60° C. (Open)) and in series [4] (setting [9]) was “White Powder” each time. The “Crystal Form” value in series [4] (setting [7]), in series [4] (setting [8]), in series [4] (60° C. (Open)) and in series [4] (setting [9]) was “Crystal Form A” each time. In addition, the solubility – broadly, the dissolved amount per volume that the medium holds – in series [5] (acetone-water (1:2), aqueous with cosolvent or surfactant or cyclodextrin, Acetone-H2O (1:2)) is less than 2 mg/mL; in series [5] (acetonitrile-water (1:1), aqueous with cosolvent or surfactant or cyclodextrin, Acetonitrile-H2O (1:1)), 46 to 58 mg/mL (≈ 94.2 to 119 mM); in series [5] (ethanol-water (1:1), aqueous with cosolvent or surfactant or cyclodextrin, Ethanol-H2O (1:1)) it was 2 to 2.7 mg/mL (≈ 4.09 to 5.53 mM); in series [5] (ethanol-water (3:1), aqueous with cosolvent or surfactant or cyclodextrin, Ethanol-H2O (3:1)) it was 22 to 24.5 mg/mL (≈ 45 to 50.1 mM); in series [5] (isopropanol-water (1:1), aqueous with cosolvent or surfactant or cyclodextrin, Isopropanol-H2O (1:1)), 2.5 to 3 mg/mL (≈ 5.12 to 6.14 mM); in series [5] (methanol-water (1:1), aqueous with cosolvent or surfactant or cyclodextrin, Methanol-H2O (1:1)), less than 2 mg/mL. The solubility was 45 to 56.5 mg/mL (≈ 92.1 to 116 mM) in series [5] (methanol-water (3:1), aqueous with cosolvent or surfactant or cyclodextrin, Methanol-H2O (3:1)); 56.9 to 75.8 mg/mL (≈ 116 to 155 mM) in series [5] (organic solvent or mixture, 2-Butanone); 45 to 56.7 mg/mL (≈ 92.1 to 116 mM) in series [5] (organic solvent or mixture, 2-Methyltetrahydrofuran); 45.9 to 57.4 mg/mL (≈ 94 to 117 mM) in series [5] (organic solvent or mixture, Acetone); 42 to 53.6 mg/mL (≈ 86 to 110 mM) in series [5] (organic solvent or mixture, Acetonitrile); less than 2 mg/mL in series [5] (organic solvent or mixture, Cyclohexane). In addition, the solubility in series [5] (organic solvent or mixture, Dioxane) lay in the range of 45 to 56.5 mg/mL (≈ 92.1 to 116 mM); in series [5] (organic solvent or mixture, Ethanol), 42 to 52.5 mg/mL (≈ 86 to 107 mM); in series [5] (organic solvent or mixture, Ethyl acetate) it was 29 to 34 mg/mL (≈ 59.4 to 69.6 mM); in series [5] (organic solvent or mixture, Isopropanol), 13.9 to 20.9 mg/mL (≈ 28.5 to 42.8 mM); in series [5] (organic solvent or mixture, Isopropyl acetate), 18 to 20.5 mg/mL (≈ 36.8 to 42 mM); in series [5] (organic solvent or mixture, Methanol), 115 to 231 mg/mL (≈ 235 to 473 mM). Also, the solubility in series [5] (organic solvent or mixture, Methyl isobutyl ketone) was 22.9 to 25.5 mg/mL (≈ 46.9 to 52.2 mM); in series [5] (organic solvent or mixture, Methyl tert-butyl ether), 3 to 3.7 mg/mL (≈ 6.14 to 7.57 mM); in series [5] (organic solvent or mixture, Tetrahydrofuran) it was 113 to 226 mg/mL (≈ 231 to 463 mM); in series [5] (organic solvent or mixture, Toluene) it was 28 to 32.5 mg/mL (≈ 57.3 to 66.5 mM); in series [5] (organic solvent or mixture, n-Butyl alcohol), 25.9 to 29.5 mg/mL (≈ 53 to 60.4 mM); in series [5] (organic solvent or mixture, n-Heptane), less than 2 mg/mL. The molecule further showed a solubility in series [5] (water, H2O) of less than 2 mg/mL. Besides, the “Result (crystal form by XRPD)” value in series [6] (2-Methyltetrahydrofuran, stirred at 40° C.) is “Crystal Form A”; in series [6] (Acetone, stirred at 40° C.) it was “Crystal Form A”; in series [6] (Acetone:water = 1:2, stirred at 40° C.), “Crystal Form B”; in series [6] (Dioxane, stirred at 40° C.), “Crystal Form A”; in series [6] (Ethanol, stirred at 40° C.), “Crystal Form A”; in series [6] (Ethanol:water = 3:1, stirred at 40° C.), “Crystal Form B”. The “Result (crystal form by XRPD)” value in series [6] (Ethyl acetate, stirred at 40° C.) is “Crystal Form A”; in series [6] (Methanol:water = 3:1, stirred at 40° C.), “Crystal Form A”; in series [6] (Toluene, stirred at 40° C.) it was “Crystal Form A”.
